From ChEMBL document CHEMBL1130791, “Novel HIV-protease inhibitors containing beta-hydroxyether and -thioether dipeptide isostere surrogates: modification of the P3 ligand” (Bioorg Med Chem Lett, 1998)
Calls of active or inactive are those of the source. The rule behind the calls is not given here.

Columns and labels:
[1] = molecular target: T1, Human immunodeficiency virus type 1 protease (Human immunodeficiency virus 1, UniProt Q72874); assay: Inhibitory activity against HIV-1 protease using scintillation proximity assay (SPA assay)
[2] = molecular target: Human immunodeficiency virus type 1 protease (Human immunodeficiency virus 1) (UniProt Q72874); assay: Antiviral activity against the HTLV-III strain of HIV-1 in CEM cell lines; format: functional, cell-based; settings: CCRF-CEM
[3] = molecular target: T1, Human immunodeficiency virus type 1 protease; assay: Inhibitory activity against HIV-1 protease using scintillation proximity assay (SPA assay); NA means not active
[4] = molecular target: Human immunodeficiency virus type 1 protease (Human immunodeficiency virus 1) (UniProt Q72874); assay: Inhibitory activity against HIV-1 protease using scintillation proximity assay (SPA assay) at a concentration of 500 nM
CCRF-CEM = assay: Compound was evaluated for antiviral activity against the HTLV-III strain of HIV-1 in CEM cell lines; NA means not active; format: functional, cell-based; settings: Homo sapiens

SMILES: CC(C)(C)NC(=O)c1ccccc1NC[C@@H](O)[C@H](Cc1ccccc1)NC(=O)[C@H](CC(N)=O)NC(=O)c1ccc2ccccc2n1
- IC50 [1]: 94 nM

SMILES: CC(C)(C)NC(=O)c1ccccc1OC[C@@H](O)[C@H](Cc1ccccc1)NC(=O)[C@H](CC(N)=O)NC(=O)c1ccc2c(c1)S(=O)(=O)c1ccccc1C2=O
- ID50 [2]: 0.55 µM
- IC50 [1]: 44 nM

SMILES: CC(C)(C)NC(=O)c1ccccc1OC[C@H](O)[C@H](Cc1ccccc1)NC(=O)[C@H](CC(N)=O)NC(=O)c1cc(O)c2ccccc2n1
- ID50 [2]: 11.2 µM
- IC50 [1]: 410 nM

SMILES: CC(C)(C)NC(=O)c1ccccc1OC[C@H](O)[C@H](Cc1ccccc1)NC(=O)[C@H](CC(N)=O)NC(=O)c1ccc2c(c1)C(=O)c1ccccc1C2=O
- ID50 [2]: 2.3 µM
- IC50 [1]: 90 nM

SMILES: CC(C)(C)NC(=O)c1ccccc1OC[C@@H](O)[C@H](Cc1ccccc1)NC(=O)[C@H](CC(N)=O)NC(=O)c1ccc2ccccc2n1
- IC50 [1]: 45 nM

SMILES: CC(C)(C)NC(=O)c1ccccc1SC[C@H](O)[C@H](Cc1ccccc1)NC(=O)[C@H](CC(N)=O)NC(=O)c1ccccn1
- IC50 [3]: Not Active

SMILES: CC(C)(C)NC(=O)c1ccccc1OC[C@@H](O)[C@H](Cc1ccccc1)NC(=O)[C@H](CC(N)=O)NC(=O)c1nc2ccccc2nc1O
- inhibition [4]: 36%
- ID50 (CCRF-CEM): inactive

SMILES: CC(C)(C)NC(=O)c1ccccc1OC[C@@H](O)[C@H](Cc1ccccc1)NC(=O)[C@H](CC(N)=O)NC(=O)c1cnnc2ccccc12
- ID50 [2]: 9.3 µM
- IC50 [1]: 130 nM

SMILES: CC(C)(C)NC(=O)c1c(OC[C@@H](O)[C@H](Cc2ccccc2)NC(=O)[C@H](CC(N)=O)NC(=O)c2ccc3c(c2)S(=O)(=O)c2ccccc2C3=O)ccc2ccccc12
- ID50 [2]: 0.1 µM
- IC50 [1]: 60 nM

SMILES: CC(C)(C)NC(=O)c1ccccc1OC[C@H](O)[C@H](Cc1ccccc1)NC(=O)[C@H](CC(N)=O)NC(=O)c1cnnc2ccccc12
- ID50 [2]: 13.4 µM
- IC50 [1]: 500 nM

SMILES: CC(C)(C)NC(=O)c1ccccc1SC[C@H](O)[C@H](Cc1ccccc1)NC(=O)[C@H](CC(N)=O)NC(=O)c1ccc2ccccc2c1
- ID50 [2]: 13.4 µM
- IC50 [1]: 390 nM

SMILES: CC(C)(C)NC(=O)c1ccccc1OC[C@H](O)[C@H](Cc1ccccc1)NC(=O)[C@H](CC(N)=O)NS(=O)(=O)c1ccc2ccccc2c1
- ID50 (CCRF-CEM): inactive

SMILES: CC(C)(C)NC(=O)c1ccccc1SC[C@@H](O)[C@H](Cc1ccccc1)NC(=O)[C@H](CC(N)=O)NC(=O)c1ccc2ccccc2n1
- IC50 [1]: 90 nM

SMILES: CC(C)(C)NC(=O)c1ccccc1OC[C@@H](O)[C@H](Cc1ccccc1)NC(=O)[C@H](CC(N)=O)NS(=O)(=O)c1ccc2ccccc2c1
- inhibition [4]: 42%
- ID50 (CCRF-CEM): inactive

SMILES: CC(C)(C)NC(=O)c1ccccc1OC[C@@H](O)[C@H](Cc1ccccc1)NC(=O)[C@H](CC(N)=O)NC(=O)c1ccc2c(c1)C(=O)c1ccccc1C2=O
- ID50 [2]: 0.33 µM
- IC50 [1]: 41 nM

SMILES: CC(C)(C)NC(=O)c1ccccc1OC[C@H](O)[C@H](Cc1ccccc1)NC(=O)[C@H](CC(N)=O)NC(=O)c1cnc2ccccc2n1
- ID50 [2]: 0.61 µM
- IC50 [1]: 100 nM

SMILES: CC(C)(C)NC(=O)c1ccccc1OC[C@H](O)[C@H](Cc1ccccc1)NC(=O)[C@H](CC(N)=O)NC(=O)c1nc2ccccc2nc1O
- ID50 [2]: 10.6 µM
- inhibition [4]: 35%

SMILES: CC(C)(C)NC(=O)c1ccccc1OC[C@@H](O)[C@H](Cc1ccccc1)NC(=O)[C@H](CC(N)=O)NC(=O)c1cnc2ccccc2n1
- ID50 [2]: 0.63 µM
- IC50 [1]: 63 nM

SMILES: CC(C)(C)NC(=O)c1c(OC[C@@H](O)[C@H](Cc2ccccc2)NC(=O)[C@H](CC(N)=O)NC(=O)c2ccc3c(c2)C(=O)c2ccccc2C3=O)ccc2ccccc12
- ID50 [2]: 0.16 µM
- IC50 [1]: 62 nM
